Results from US9782395B2, “2,4-thiazolidinedione derivatives in the treatment of central nervous system disorders” (MINORYX THERAPEUTICS S.L., priority 2014, dated 2017).
Read-outs that look alike come from different tables or passages of the source.

Experiments:
[1] = system: primary rat cortical neurons injured by glutamate; assay: Primary cortical neurons injured by glutamate, survival by MTT; assay type: cell-based
Experimental: Protocol: Rat cortical neurons were cultured as described by Singer (J Neurosci. 1999 Apr. 1; 19(7):2455-63) and Callizot (J Neurosci Res. 2013 May; 91(5):706-16).
Foetuses were collected and immediately placed in ice-cold Leibovitz medium. Cortex was treated with a trypsin-EDTA solution and the dissociation was stopped by addition of Dulbecco's modified Eagle's medium (DMEM) with glucose (Pan Biotech), containing DNAse I and 10% fetal calf serum (FCS). Cells were mechanically dissociated and centrifuged. The pellet was resuspended in a defined culture medium with 10 ng/ml of brain-derived neurotrophic factor (BDNF). The cells were seeded in 96-well plates precoated with poly-L-lysine and were cultured at 37°. The medium was changed every 2 days. The cortical neurons were intoxicated with glutamate after 13 days of culture.
Briefly, on day 13 of culture, BDNF and test compound were pre-incubated with primary cortical neurons for 1 hour before glutamate exposure. Glutamate was added to a final concentration of 40 μM diluted in control medium in presence of BDNF or test compound for 20 min.
After 20 min, glutamate was washed out and fresh culture medium with BDNF or test compound was added for additional 48 hours. The survival evaluation was done by a MTT assay performed with CellTiter 96® Aqueous One Solution Cell Proliferation Assay (Promega).

[2] = Brain plasma ratio at Cmax after single oral dose of Pioglitazone; assay type: in vivo, male C57BL/6 mice; conditions: male, C57BL/6, mouse, single oral Pioglitazone 4.5 mg/kg, parent and metabolites quantified, read-out: percentage brain plasma ratio
Experimental: The brain plasma ratios of Pioglitazone, MIV, MIII and MII following oral dosing of a single administration of Pioglitazone at 4.5 mg/kg in male C57BL/6 mice.
The brain-plasma ratio was calculated based on levels of Pioglitazone, MIV, MIII and MII in plasma and brain quantified at C max (maximal concentration) following oral dosing of a single administration of Pioglitazone at 4.5 mg/kg in male C57BL/6 mice.

[3] = system: Rat spinal cord (SC) motor neurons injured by glutamate; assay: Spinal cord motor neurons injured by glutamate, survival by MAP-2 immunostaining; assay type: cell-based; conditions: 1 μM, glutamate 10 μM 20 min, 48 hours, p<0.05
Experimental: Protocol: Rat spinal cord (SC) motor neurons were cultured as described by Martinou (Neuron. 1992 April; 8(4):737-44) and Wang (PLoS Genet. 2013; 9(9)). Briefly, pregnant female rats of 14 days gestation were killed by cervical dislocation and foetuses were collected and immediately placed in ice-cold L15 Leibovitz medium. Spinal cord was treated for 20 min at 37° C. with a trypsin-EDTA. The dissociation was stopped by addition of Dulbecco's modified Eagle's medium (DMEM) with glucose (Pan Biotech), containing DNAse I and 10% fetal calf serum (FCS). Cells were mechanically dissociated and they were then centrifuged. The pellet was resuspended in a defined culture medium with 10 ng/ml of brain-derived neurotrophic factor (BDNF). The cells were seeded in 96-well plates precoated with poly-L-lysine and were cultured at 37°. The medium was changed every 2 days.
Briefly, on day 13 of culture, BDNF or test compound was pre-incubated with primary Spinal cord (SC) motor neurons for 1 hour before glutamate exposure. Glutamate was added to a final concentration of 10 μM diluted in control medium in presence of BDNF or test compound for 20 min. […]
For each condition 6 wells were assessed, 30 pictures per well were taken using ImageXpress (Molecular Device) with 20× magnification. […]

[4] = system: X-linked adrenoleukodystrophy fibroblasts; assay: X-ALD patient fibroblasts, cell survival (MTT); assay type: cell-based, human; conditions: at 3, M, vs non-treated, 24 hours
Experimental: Human control and X-linked adrenoleukodystrophy fibroblasts were obtained from Coriell (Candem, USA). Cells were grown in Dulbecco's modified Eagle medium containing 10% foetal bovine serum, 100 U/ml penicillin and […], at 37° C. in humidified 95% air/5% CO2, to 80-90% confluence. To perform our experiments, Dulbecco's modified Eagle medium without D-glucose, pyruvate or L-glutamine was used. Cells were cultured in this medium supplemented with 1 g/l of glucose or 1 g/l of galactose and 10% foetal bovine serum for 24 hours incubated with increasing doses of MIV (3, 10 and 30 μM).
The determination of MTT was performed as described by Mosmann J. Immunol. Methods 1983, 65, 55-63 and by Hansen J. Immunol. Methods 1989; 119, 203-210. This method is based on the ability of viable but not dead cells to convert the tetrazolium salt (MTT) to colored formazan.
For the determination of ATP levels, 2×10^4 cells/well were seeded in 96 well cell culture plate in complete medium. After 16-18 h cells, were lysed in 20 μl lysis buffer and 10 μl of lysate was used to measure ATP levels using ATP determination Kit (Molecular Probes, Invitrogen). 1 μl each of the remaining lysate was used for protein measurement.

[5] = target: T1, Human recombinant monoamine oxidase MAO-B (Homo sapiens, UniProt P27338); assay: MAO-B inhibition, kynuramine fluorescence assay; assay type: biochemical
T1 construct: purchased Sigma Aldrich M7441
T1 sequence (P27338 1-520): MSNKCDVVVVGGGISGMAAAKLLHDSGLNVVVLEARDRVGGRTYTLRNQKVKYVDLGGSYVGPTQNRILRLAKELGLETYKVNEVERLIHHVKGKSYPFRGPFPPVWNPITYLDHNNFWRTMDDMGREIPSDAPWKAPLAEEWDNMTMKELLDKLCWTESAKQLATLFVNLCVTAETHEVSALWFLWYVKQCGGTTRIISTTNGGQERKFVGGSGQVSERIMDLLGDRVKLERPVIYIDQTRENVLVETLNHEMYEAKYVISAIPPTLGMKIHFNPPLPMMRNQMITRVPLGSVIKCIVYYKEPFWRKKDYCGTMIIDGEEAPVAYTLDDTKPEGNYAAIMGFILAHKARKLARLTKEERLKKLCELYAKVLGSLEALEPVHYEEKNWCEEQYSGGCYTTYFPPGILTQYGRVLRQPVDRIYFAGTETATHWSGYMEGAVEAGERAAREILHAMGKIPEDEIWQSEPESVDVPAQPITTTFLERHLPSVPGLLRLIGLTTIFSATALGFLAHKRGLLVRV
From the text: (§1) Protocol: Human recombinant monoamine oxidase proteins MAO-A and MAO-B were purchased from Sigma Aldrich (Reference M7316 and M7441 respectively). In order to monitor the MAO enzymatic activities and their inhibition rate a fluorescence based assay was used. The substrate for the assay, kynuramine, is non-fluorescent until undergoing oxidative deamination by MAOs resulting in the fluorescent product 4-hydroxyquinoline. Kynuramine is a substrate for both MAO-A and -B (non-specific substrate). Clorgiline and Deprenyl (Sigma Aldrich) were used as controls for specific inhibition of MAO-A and MAO-B respectively.

[6] = Brain plasma ratio from AUC of plasma and brain profiles after single oral dose of Pioglitazone or MIV; assay type: in vivo, male C57BL/6 mice; conditions: male, C57BL/6, mouse, single oral 4.5 mg/kg of the compound itself, read-out: percentage brain-plasma ratio
Experimental: The brain plasma ratios of Pioglitazone and MIV and following oral dosing of a single administration of either Pioglitazone or M-IV both at 4.5 mg/kg in male C57BL/6 mice. […] The brain-plasma ratio was calculated based on the pharmacokinetics curves of plasma and brain concentration-time profiles calculated as area under the curves of Pioglitazone and following oral dosing of a single administration of either Pioglitazone or MIV both at 4.5 mg/kg in male C57BL/6 mice.

[7] = target: T2, Human recombinant monoamine oxidase MAO-A (Homo sapiens, UniProt P21397); assay: MAO-A inhibition, kynuramine fluorescence assay; assay type: biochemical
T2 construct: purchased Sigma Aldrich M7316
T2 sequence (P21397 1-527): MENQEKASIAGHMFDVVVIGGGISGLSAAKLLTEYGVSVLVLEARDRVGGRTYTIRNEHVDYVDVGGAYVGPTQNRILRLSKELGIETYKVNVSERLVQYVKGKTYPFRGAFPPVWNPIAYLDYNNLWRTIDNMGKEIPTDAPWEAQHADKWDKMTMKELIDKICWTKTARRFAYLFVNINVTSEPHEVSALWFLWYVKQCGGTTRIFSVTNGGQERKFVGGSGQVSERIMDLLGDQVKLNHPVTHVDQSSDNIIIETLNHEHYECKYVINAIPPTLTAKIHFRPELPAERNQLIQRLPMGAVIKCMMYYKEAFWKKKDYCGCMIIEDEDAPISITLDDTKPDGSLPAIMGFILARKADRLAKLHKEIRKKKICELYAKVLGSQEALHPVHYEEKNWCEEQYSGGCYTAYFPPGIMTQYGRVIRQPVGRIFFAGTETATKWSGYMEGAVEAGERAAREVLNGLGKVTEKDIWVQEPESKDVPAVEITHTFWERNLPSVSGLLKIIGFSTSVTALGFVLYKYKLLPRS
From the text: as §1

[8] = system: experimental autoimmune encephalomyelitis (EAE)
[9] = Pharmacokinetic profile and brain distribution after single oral and intravenous dose; assay type: in vivo, male C57 BL/6 mice
Experimental: Protocol: Pharmacokinetic parameters and brain distribution of 5-(4-(2-(5-(1-hydroxyethyl)pyridine-2-yl)ethoxy)benzyl)thiazolidine-2,4-dione (racemate or stereoisomers) following single oral (4.5 mg/kg) and intravenous (1 mg/kg) dose administration to male C57 BL/6 mice were determined. Blood samples and brain samples were collected pre-dosing and different times post dosing for both oral and i.v pharmacokinetics. All samples were processed for analysis by protein precipitation using acetonitrile and analyzed with fit-for-purpose LC/MS/MS method. The lower limit of quantification (LLOQ) in plasma and brain for 5-(4-(2-(5-(1-hydroxyethyl)pyridine-2-yl)ethoxy)benzyl)thiazolidine-2,4-dione (1) is 0.99 ng/mL. Pharmacokinetic parameters were calculated using the non-compartmental analysis tool of Phoenix WinNonlin.

[10] = diabetic preclinical models; cited from earlier work

## CC(O)c1ccc(CCOc2ccc(CC3SC(=O)NC3=O)cc2)nc1 (racemic) [compound (1), 5-[4-[2-(5-(1-hydroxyethyl)-2-pyridinyl)ethoxy]benzyl]-2,4-thiazolidinedione]
[1]; 3 μM, glutamate 40 μM 20 min, 48 hours
  protective effect on glutamate injury (survival, MTT): full protective effect
[2]; brain and plasma
  Kp: 0.13
[3]
  effect on cell survival vs the control with glutamate: protective effect
[4]
  increase in cell survival: 20%
[5]
  IC50: 70.5 nM
[6]
  Kp: 0.12
[7]
  inhibition of MAO A protein: did not inhibit
[8]; bid from day 5 post immunization for 15 days, three increasing doses
  development and severity of EAE (clinical scores): reduces the development and severity
[8]; mouse, in vivo
  body weight loss associated to treatment: No body weight loss
  hematological toxicity associated to treatment: no significant hematological toxicity
[9]; both intravenous and oral profiles
  brain concentrations observed until: 8 h
[9]; male, mouse, brain and plasma, C57BL/6 mice, single oral 4.5 mg/kg / i.v. 1 mg/kg, read-out: brain-to-plasma exposure (AUClast) ratio
  Kp: 0.12
[9]; male, mouse, plasma, oral 4.5 mg/kg vs i.v. 1 mg/kg, C57BL/6 mice
  bioavailability: 85%
[9]; male, mouse, plasma, single intravenous 1 mg/kg, C57BL/6 mice, read-out: systemic plasma clearance
  clearance: 11.8 mL/min/kg
[9]; male, mouse, plasma, single intravenous 1 mg/kg, C57BL/6 mice, read-out: terminal elimination plasma half-life (converted)
  half-life: 107 min
[9]; male, mouse, plasma, single oral 4.5 mg/kg, C57BL/6 mice, read-out: Tmax in plasma
  Tmax: 30 min
[9]; male, mouse, C57BL/6 mice, brain, read-out: Tmax in brain
  Tmax: 30 min
[9]; single oral 4.5 mg/kg, 1 animal
  plasma concentrations observed until: 24 h

## CC(=O)c1ccc(CCOc2ccc(CC3SC(=O)NC3=O)cc2)nc1 (stereo not shown) [MIII, 5-(4-(2-(5-acetyl-2-pyridyl)ethoxy)benzyl)-2,4-thiazolidinedione]
[2]; brain and plasma
  Kp: 0.07
[10]
  pharmacological activity relative to Pioglitazone: less active than Pioglitazone

## CCc1ccc(C(O)COc2ccc(CC3SC(=O)NC3=O)cc2)nc1 (stereo not shown) [MII]
[2]; in vivo
  Kp: 0.01
[10]
  pharmacological activity relative to Pioglitazone: less active than Pioglitazone

## CCc1ccc(CCOc2ccc(CC3SC(=O)NC3=O)cc2)nc1 (stereo not shown) [Pioglitazone, reference compound]
[2]; brain and plasma
  Kp: 0.09
[6]
  Kp: 0.08

B1: BDNF: brain-derived neurotrophic factor, reference compound (protein, UniProt P23560 19-247, looked up)
Neurotrophic factor BDNF …: APMKEANIRGQGGLAYPGVRTHGTLESVNGPKAGSRGLTSLADTFEHVIEELLDEDQKVRPNEENNKDADLYTSRVMLSSQVPLEPPLLFLLEEYKNYLDAANMSMRVRRHSDPARRGELSVCDSISEWVTAADKKTAVDMSGGTVTVLEKVPVSKGQLKQYFYETKCNPMGYTKEGCRGIDKRHWNSQCRTTQSYVRALTMDSKKRIGWRFIRIDTSCVCTLTIKRGR
[1]; 50 ng/ml, reference compound
  protective effect on glutamate injury (survival, MTT): full protective effect
